Reference: PubChem BioAssay (NCI)
“And” between values parts separate entries of the source, which are not always exact repeats. Equal values may be shown once.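 Each compound was tested at five concentrations against cells in 96-well plates for 48 hours. GI50: concentration for 50% inhibition of growth. TGI: concentration producing complete growth inhibition.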

How the values were obtained:
Assay in all cases: NCI-60 cell line screen, 48 h
COLO 205 colon = test system: COLO 205 colon
HT29 colon = test system: HT29 colon
K-562 leukemia = test system: K-562 leukemia
NCI-H23 lung = test system: NCI-H23 lung
OVCAR-3 ovarian = test system: OVCAR-3 ovarian
SF-295 CNS = test system: SF-295 CNS
SN12C renal = test system: SN12C renal
U251 CNS = test system: U251 CNS
MCF7 breast = test system: MCF7 breast
MDA-MB-231 breast = test system: MDA-MB-231 breast

SMILES	TGI (COLO 205 colon)	TGI (HT29 colon)	TGI (K-562 leukemia)	TGI (NCI-H23 lung)	TGI (OVCAR-3 ovarian)	TGI (SF-295 CNS)	TGI (SN12C renal)	TGI (U251 CNS)	TGI (MCF7 breast) [µM]	GI50 (COLO 205 colon)	GI50 (HT29 colon) [µM]	GI50 (K-562 leukemia)	GI50 (MCF7 breast) [µM]	GI50 (MDA-MB-231 breast) [µM]	TGI (MDA-MB-231 breast) [µM]	GI50 (NCI-H23 lung) [µM]	GI50 (SF-295 CNS)	GI50 (SN12C renal)	GI50 (U251 CNS) [µM]	GI50 (OVCAR-3 ovarian)
O=[N+]([O-])c1cc(/C=N\NS(=O)(=O)c2ccc(Cl)cc2)c(O)c([N+](=O)[O-])c1	31 µM	58.9 µM	79.5 µM	50.8 µM	54.1 µM	> 100 µM	87.4 µM	54.3 µM												
CCc1ccc2oc(=O)ccc2c1	> 100 µM	> 100 µM	> 100 µM	> 100 µM	> 100 µM	> 100 µM	> 100 µM	> 100 µM	> 100											
Cc1cc(Cl)cc2c1NC(=O)C2(O)CC(=O)c1ccc(Br)cc1 (stereo unspecified)	> 100 µM	> 100 µM	> 100 µM	99.4 µM	> 100 µM	> 100 µM	> 100 µM	> 100 µM												
CCCC(O)c1cn(-c2cccc(S(=O)(=O)O)c2)nn1 (stereo unspecified)	> 100 µM	> 100 µM	> 100 µM	> 100 µM	> 100 µM	> 100 µM	> 100 µM	> 100 µM												
CC(/C=C/C(=O)c1sc(C(N)=S)nc1C)=C\c1ccccc1	> 100 µM	> 100 µM	> 100 µM	> 100 µM	> 100 µM	> 100 µM	> 100 µM	> 100 µM												
COc1ccc(NC(=O)CC(=O)N/N=C(\C)c2cc3ccccc3oc2=O)cc1	> 100 µM	> 100 µM	> 100 µM	> 100 µM	> 100 µM	> 100 µM	> 100 µM	> 100 µM												
CCCCNS(=O)(=O)c1ccc(-c2ccc3c(c2)-c2ccc(S(=O)(=O)NCCCC)cc2S3(=O)=O)cc1	> 100 µM	> 100 µM	> 100 µM	43 µM	76.2 µM	45.1 µM		55.5 µM												
CCCCCCC(=O)C/C(CCC(=O)N(Cc1ccccc1)Cc1ccccc1)=N\NC(N)=O	> 100 µM	> 100 µM	> 100 µM	> 100 µM	> 100 µM	> 100 µM	> 100 µM	> 100 µM												
COc1ccc(Br)c(CN2CCc3ccccc32)c1OS(=O)(=O)c1ccc(C)cc1	33.8 µM		> 100 µM	85.1 µM	75.9 µM	> 100 µM	> 100 µM													
CN1CCN(C(=O)c2ccc(NC(=O)Nc3ccc(-c4nc(N5CCOCC5)c5cccn5n4)cc3)cc2)CC1	1.38 µM		14.7 µM	19 µM		0.239 µM	11.8 µM	10.3 µM	2.73	0.0414 µM	0.0487	0.0963 µM	< 0.012	0.0431	11.3	0.0711	0.0322 µM	0.0331 µM	0.0464	
COc1ccc(N2C(=O)[C@@H](N=[N+]=[N-])[C@@H]2[C@H]2COC(C)(C)O2)cc1	> 100 µM	> 100 µM	> 100 µM	> 100 µM	> 100 µM	> 100 µM	> 100 µM	> 100 µM												
O=C(O)c1c2c(cc3c(=O)c4ccccc4[nH]c13)CCCC2	> 100 µM	> 100 µM		> 100 µM	> 100 µM	> 100 µM	> 100 µM													
COc1ccc(-c2cc3ccccc3[nH]c2=O)cc1OC	> 100 µM	> 100 µM	> 100 µM	> 100 µM		> 100 µM	> 100 µM	> 100 µM												
CC1=NN(c2ccccc2)C(=O)C12[C@H](c1ccccc1)C2(C#N)C#N (stereo partly specified)	4.42 µM	17.1 µM	6.12 µM	11 µM	19.5 µM	25.5 µM	14.3 µM	29.6 µM												
CC1=C(CO)C(=O)O[C@@H]([C@@H](C)[C@H]2CC[C@H]3[C@@H]4C[C@H]5O[C@]56[C@@H](O)C=CC(=O)[C@]6(C)[C@H]4CC[C@]23C)C1	0.81 µM		2.5 µM	0.81 µM	0.792 µM	3 µM	1.78 µM	1.52 µM	2.43				0.345	0.491	1.77			0.463 µM		
COc1cc(Cc2c(C)cc(OC)c3[nH]c4ccccc4c23)cc2c1[nH]c1ccccc12	> 25 µM	> 25 µM	> 25 µM		12.3 µM		22.8 µM	9.84 µM		12 µM	7.84	7.31 µM						6.4 µM	4.96	
O=C1C(Cl)=C(Cl)C(=O)N1c1ccc(Cl)c(Cl)c1Cl	> 100 µM	> 100 µM	91.8 µM	> 100 µM	> 100 µM	> 100 µM	> 100 µM	> 100 µM												
Cc1ccc(SSCC(O)C(O)CSSc2ccc(C)cc2)cc1 (stereo unspecified)	3.75 µM and 27.3 µM	27.8 µM and 49.8 µM	28.3 µM and 46.8 µM	20.9 µM and 24.1 µM	18.4 µM and 27 µM	16.4 µM and 26.1 µM	17.3 µM and 23.2 µM	10.9 µM and 12 µM		1.99 µM and 14.2 µM		4.84 µM and 15.3 µM					4.31 µM and 12.6 µM	4.74 µM and 10.5 µM		6.31 µM and 13.9 µM
COc1cc2c(cc1OC)C(C(CBr)CBr)N(C1CCCC1)CC2 (stereo unspecified)	> 100 µM	> 100 µM	> 100 µM	> 100 µM	> 100 µM	> 100 µM		> 100 µM												
COC(=O)/C(C#N)=C1\CCC(OC)N1C (stereo unspecified)	> 100 µM	> 100 µM	> 100 µM	> 100 µM	> 100 µM	> 100 µM	> 100 µM	> 100 µM												
CCC1CCCCN1CC(C(C)=O)C(c1ccccc1)c1c(O)c2ccccc2oc1=O (stereo unspecified)	> 100 µM	> 100 µM	> 100 µM	> 100 µM	> 100 µM	> 100 µM	> 100 µM	> 100 µM												
O=C1CC(c2cccc(Cl)c2)Oc2ccccc21 (stereo unspecified)	69.3 µM	33.3 µM	6.4 µM	24.3 µM		53.6 µM		> 100 µM	39.4						> 100					
